The source of these data is patent US20250214967A1, “FAK DEGRADERS, PHARMACEUTICAL COMPOSITIONS, AND THERAPEUTIC APPLICATIONS” (Berrybio (Shanghai) Limited, priority 2022, published 2025).

This test concerns the target FAK (Homo sapiens (Human), UniProt Q05397). The experiment in a line: FAK Degradation Assay (Western blot, FAK/GAPDH). The test is classed as cell-based. To be noted: MDA-MB-231 cells, 24 h treatment, Western blot normalized to DMSO; for DC50: read-out: DC50 (half-maximal degradation concentration), FAK Degradation; for Dmax: read-out: Dmax (maximal degradation), FAK Degradation. The method, then:
H2122 (4×10^5), MIA PaCa-2 (6×10s), or MDA-MB-231 cells (6×10^5) per well were seeded into a 6-well plate containing 2 mL of complete culture medium (RPMI-1640 for H2122 and MDA-MB-231, and DMEM/F12 for MIA PaCa-2, supplemented with 10% FBS and 1% penicillin/streptomycin). The cells were cultured overnight at 37° C. in the presence of 5% C02 before treated with a compound in a series of concentrations for 24 h. The cells were then washed with ice-cold Dulbecco's phosphate-buffered saline (DPBS). A radioimmuno-precipitation assay (RIPA) buffer was added to lyse the cells on ice for 20 min. The cells were then scrapped using cell scraper and collected in a 1.5 mL tube, which was centrifuged at 14,000 g and 4° C. for 15 min. The supernatant was collected and the total protein concentration of each sample was determined using a PIERCE™ BCA protein assay kit. The supernatant was diluted to the same protein concentration with the RIPA buffer after the BCA assay. Samples of the same protein amount were mixed with 4× a lithium dodecyl sulfate (LDS) sample buffer and boiled at 95° C. for 5 min. The denatured samples were used for electrophoresis.
For Western blot, the same volume containing ˜50 μg protein for each sample was loaded onto 4-12% Bis-Tris protein gel. The gel was run at 80 V for 0.5 h and at 120 V for 1 h. When the electrophoresis was completed, an IBLOT™ 2 gel transfer device was used to transfer FAK and GAPDH proteins at 20 V for 7 min. All the membranes were blocked in 5% nonfat dry milk in a TBST buffer at RT for 1 h and then incubated with primary antibodies (anti-FAK and anti-GAPDH) in a TBST buffer containing 5% BSA at 4° C. overnight. The membranes were washed with the TBST buffer and then incubated with secondary antibodies (goat anti-rabbit IgG H&L for FAK and goat anti-mouse IgG H&L for GAPDH) at room temperature for 1 h. Blots were visualized using an IMAGEQUANT™ LAS-4000. The chemiluminescent signals from ECL™ Western blotting reagents were captured. The band integrated intensity from each 16-bit blot image was used for quantitation. The FAK/GAPDH signal ratios of each sample were normalized using DMSO as a control and the normalized data for each compound were used to obtain its half-maximal degradation concentration (DC50) and maximal degradation (Dmax).
(In general: Immunoblotting shows a protein as a band on a membrane.)

The structures appear in SMILES notation.

FAK, sequence (Q05397 whole entry): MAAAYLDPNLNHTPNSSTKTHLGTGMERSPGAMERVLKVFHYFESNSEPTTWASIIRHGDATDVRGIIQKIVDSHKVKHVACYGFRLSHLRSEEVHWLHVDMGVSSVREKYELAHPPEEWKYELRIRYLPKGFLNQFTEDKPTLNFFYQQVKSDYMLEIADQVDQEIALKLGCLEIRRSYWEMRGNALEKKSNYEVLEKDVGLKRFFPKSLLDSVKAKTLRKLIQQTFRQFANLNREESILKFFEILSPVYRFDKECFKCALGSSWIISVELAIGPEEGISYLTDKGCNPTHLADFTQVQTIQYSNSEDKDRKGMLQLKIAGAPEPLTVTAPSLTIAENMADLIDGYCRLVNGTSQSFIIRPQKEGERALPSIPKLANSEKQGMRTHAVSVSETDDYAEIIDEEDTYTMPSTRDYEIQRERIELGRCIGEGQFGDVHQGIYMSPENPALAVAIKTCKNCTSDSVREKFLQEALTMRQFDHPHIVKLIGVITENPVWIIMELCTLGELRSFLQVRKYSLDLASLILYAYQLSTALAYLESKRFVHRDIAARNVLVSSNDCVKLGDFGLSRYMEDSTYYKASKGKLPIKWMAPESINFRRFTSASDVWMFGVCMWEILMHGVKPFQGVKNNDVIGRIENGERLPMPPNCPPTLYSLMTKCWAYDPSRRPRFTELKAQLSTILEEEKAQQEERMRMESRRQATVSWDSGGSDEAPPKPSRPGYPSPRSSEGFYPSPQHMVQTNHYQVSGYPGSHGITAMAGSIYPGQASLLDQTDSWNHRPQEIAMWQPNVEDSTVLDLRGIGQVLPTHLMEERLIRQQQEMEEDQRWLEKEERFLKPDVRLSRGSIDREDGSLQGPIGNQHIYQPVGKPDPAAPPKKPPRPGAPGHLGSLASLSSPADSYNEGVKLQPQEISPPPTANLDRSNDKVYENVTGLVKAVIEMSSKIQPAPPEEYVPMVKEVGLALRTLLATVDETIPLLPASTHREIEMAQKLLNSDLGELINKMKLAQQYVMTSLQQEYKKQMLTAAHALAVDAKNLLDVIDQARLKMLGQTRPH

Usually Dmax stands for the greatest extent of degradation seen. For `CN(c1nccnc1CNc1nc(Nc2ccc(OCCCCCCOc3ccc4c(c3)C(=O)N(C3CCC(=O)NC3=O)C4=O)cc2)ncc1C(F)(F)F)S(C)(=O)=O` (stereo not drawn) [Compound A8, N-(3-(((2-((4-((6-((2-(2,6-Dioxopiperidin-3-yl)-1,3-dioxoisoindolin-5-yl)oxy)-hexyl)oxy)phenyl)amino)-5-(trifluoromethyl)pyrimidin-4-yl)amino)methyl)pyrazin-2-yl)-N-methylmethanesulfonamide], the DC50 came out at 4.1 nM and the Dmax was 100%.

For the molecule `CN(c1nccnc1CNc1nc(Nc2ccc(OCCCCCCCOc3ccc4c(c3)C(=O)N(C3CCC(=O)NC3=O)C4=O)cc2)ncc1C(F)(F)F)S(C)(=O)=O` (stereo not drawn) [Compound A9, N-(3-(((2-((4-((7-((2-(2,6-Dioxopiperidin-3-yl)-1,3-dioxoisoindolin-5-yl)oxy)-heptyl)oxy)phenyl)amino)-5-(trifluoromethyl)pyrimidin-4-yl)amino)methyl)pyrazin-2-yl)-N-methylmethanesulfonamide], the DC50 worked out at 14 nM and the Dmax was 100%.

Regarding `CN(c1nccnc1CNc1nc(Nc2cccc(C(=O)NC3CCN(CC4CCN(c5ccc6c(c5)C(=O)N(C5CCC(=O)NC5=O)C6=O)CC4)CC3)c2)ncc1C(F)(F)F)S(C)(=O)=O` (stereo not drawn) [Compound A10, N-(1-((1-(2-(2,6-Dioxopiperidin-3-yl)-1,3-dioxoisoindolin-5-yl)piperidin-4-yl)-methyl)piperidin-4-yl)-3-((4-(((3-(N-methylmethylsulfonamido)pyrazin-2-yl)methyl)amino)-5-(trifluoromethyl)pyrimidin-2-yl)amino)benzamide], the DC50 is 2.1 nM and the Dmax came out at 98%.

As for `CN(c1nccnc1CNc1nc(Nc2cccc(C(=O)N3CCC(N4CCN(c5ccc6c(c5)C(=O)N(C5CCC(=O)NC5=O)C6=O)CC4)CC3)c2)ncc1C(F)(F)F)S(C)(=O)=O` (stereo not drawn) [Compound A11, N-(3-(((2-((3-(4-(4-(2-(2,6-Dioxopiperidin-3-yl)-1,3-dioxoisoindolin-5-yl)-piperazin-1-yl)piperidine-1-carbonyl)phenyl)amino)-5-(trifluoromethyl)pyrimidin-4-yl)amino)-methyl)pyrazin-2-yl)-N-methylmethanesulfonamide], the DC50 worked out at 0.83 nM and the Dmax came out at 94%.

As to `CN(c1nccnc1CNc1nc(Nc2cccc(C(=O)NC3CCN(c4ccc5c(c4)C(=O)N(C4CCC(=O)NC4=O)C5=O)CC3)c2)ncc1C(F)(F)F)S(C)(=O)=O` (stereo not drawn) [Compound A12, N-(1-(2-(2,6-dioxopiperidin-3-yl)-1,3-dioxoisoindolin-5-yl)piperidin-4-yl)-3-((4-(((3-(N-methylmethylsulfonamido)pyrazin-2-yl)methyl)amino)-5-(trifluoromethyl)pyrimidin-2-yl)amino)benzamide], the DC50 amounted to 5.6 nM and the Dmax is 98%.

As for `CN(c1nccnc1CNc1nc(Nc2cccc(C(=O)N3CC(OC4CCN(c5ccc6c(c5)C(=O)N(C5CCC(=O)NC5=O)C6=O)CC4)C3)c2)ncc1C(F)(F)F)S(C)(=O)=O` (stereo not drawn) [Compound A13, N-(3-(((2-((3-(3-((1-(2-(2,6-dioxopiperidin-3-yl)-1,3-dioxoisoindolin-5-yl)-piperidin-4-yl)oxy)azetidine-1-carbonyl)phenyl)amino)-5-(trifluoromethyl)pyrimidin-4-yl)-amino)methyl)pyrazin-2-yl)-N-methylmethanesulfonamide], the DC50 is 1.4 nM and the maximal degradation (Dmax) is 94%.

With `CN(c1ccccc1CNc1cc(Nc2ccc(CNC3CCN(c4ccc5c(c4)C(=O)N(C4CCC(=O)NC4=O)C5=O)CC3)cc2)ncc1C(F)(F)F)S(C)(=O)=O` (stereo not drawn) [Compound A14, N-(2-(((2-((4-(((1-(2-(2,6-dioxopiperidin-3-yl)-1,3-dioxoisoindolin-5-yl)piperidin-4-yl)amino)methyl)phenyl)amino)-5-(trifluoromethyl)pyridin-4-yl)amino)methyl)phenyl)-N-methylmethanesulfonamide], the DC50 stood at 10 nM and the Dmax came out at 93%.

For `CN(c1ccccc1CNc1cc(Nc2ccc(C(=O)NC3CCN(c4ccc5c(c4)C(=O)N(C4CCC(=O)NC4=O)C5=O)CC3)cc2)ncc1C(F)(F)F)S(C)(=O)=O` (stereo not drawn) [Compound A15, N-(1-(2-(2,6-dioxopiperidin-3-yl)-1,3-dioxoisoindolin-5-yl)piperidin-4-yl)-4-((4-((2-(N-methylmethylsulfonamido)benzyl)amino)-5-(trifluoromethyl)pyridin-2-yl)amino)-benzamide], the DC50 was 2.6 nM and the Dmax stood at 93%.

As for `CN(c1cccc(CNc2cc(Nc3ccc(CNC4CCN(c5ccc6c(c5)C(=O)N(C5CCC(=O)NC5=O)C6=O)CC4)cc3)ncc2C(F)(F)F)c1)S(C)(=O)=O` (stereo not drawn) [Compound A16, N-(3-(((2-((4-(((1-(2-(2,6-Dioxopiperidin-3-yl)-1,3-dioxoisoindolin-5-yl)-piperidin-4-yl)amino)methyl)phenyl)amino)-5-(trifluoromethyl)pyridin-4-yl)amino)methyl)-phenyl)-N-methylmethanesulfonamide], the DC50 amounted to 2.7 nM and the maximal degradation (Dmax) was 93%.

Take `CNC(=O)c1ccccc1Nc1cc(Nc2ccc3c(c2)CC(=O)N3CC2CCN(c3ccc4c(c3)C(=O)N(C3CCC(=O)NC3=O)C4=O)CC2)ncc1C(F)(F)F` (stereo not drawn) [Compound A17, 2-((2-((1-((1-(2-(2,6-Dioxopiperidin-3-yl)-1,3-dioxoisoindolin-5-yl)piperidin-4-yl)methyl)-2-oxoindolin-5-yl)amino)-5-(trifluoromethyl)pyridin-4-yl)amino)-N-methyl-benzamide]: the DC50 came to 1.7 nM and the Dmax was found to be 88%.

For the molecule `CN(c1ccccc1CNc1cc(Nc2ccc(CN3CC(Oc4ccc5c(c4)C(=O)N(C4CCC(=O)NC4=O)C5=O)C3)cc2)ncc1C(F)(F)F)S(C)(=O)=O` (stereo not drawn) [Compound A18, N-(2-(((2-((4-((3-((2-(2,6-Dioxopiperidin-3-yl)-1,3-dioxoisoindolin-5-yl)oxy)-azetidin-1-yl)methyl)phenyl)amino)-5-(trifluoromethyl)pyridin-4-yl)amino)methyl)phenyl)-N-methylmethanesulfonamide], the DC50 was found to be 21 nM and the Dmax was found to be 84%.

As for `CN(c1ccccc1CNc1cc(Nc2ccc(CNC3CN(c4ccc5c(c4)C(=O)N(C4CCC(=O)NC4=O)C5=O)C3)cc2)ncc1C(F)(F)F)S(C)(=O)=O` (stereo not drawn) [Compound A19, N-(2-(((2-((4-(((1-(2-(2,6-Dioxopiperidin-3-yl)-1,3-dioxoisoindolin-5-yl)azetidin-3-yl)amino)methyl)phenyl)amino)-5-(trifluoromethyl)pyridin-4-yl)amino)methyl)phenyl)-N-methylmethanesulfonamide], the DC50 was 2.8 nM and the Dmax worked out at 96%.

On to `CN(c1ccccc1CNc1cc(Nc2ccc(C(=O)NC3CN(c4ccc5c(c4)C(=O)N(C4CCC(=O)NC4=O)C5=O)C3)cc2)ncc1C(F)(F)F)S(C)(=O)=O` (stereo not drawn) [Compound A20, N-(1-(2-(2,6-Dioxopiperidin-3-yl)-1,3-dioxoisoindolin-5-yl)azetidin-3-yl)-4-((4-((2-(N-methylmethylsulfonamido)benzyl)amino)-5-(trifluoromethyl)pyridin-2-yl)amino)-benzamide], for which the DC50 was 4.6 nM and the Dmax is 79%.

For `CNC(=O)c1ccccc1Nc1cc(Nc2ccc(C(=O)NC3CCN(c4ccc5c(c4)C(=O)N(C4CCC(=O)NC4=O)C5=O)CC3)cc2)ncc1C(F)(F)F` (stereo not drawn) [Compound A21, 2-((2-((4-((1-(2-(2,6-Dioxopiperidin-3-yl)-1,3-dioxoisoindolin-5-yl)piperidin-4-yl)carbamoyl)phenyl)amino)-5-(trifluoromethyl)pyridin-4-yl)amino)-N-methylbenzamide], the DC50 was 1.3 nM and the greatest degradation seen (Dmax) was 93%.

Consider `CNC(=O)c1ccccc1Nc1cc(Nc2ccc(CNC3CCN(c4ccc5c(c4)C(=O)N(C4CCC(=O)NC4=O)C5=O)CC3)cc2)ncc1C(F)(F)F` (stereo not drawn) [Compound A22, 2-((2-((4-(((1-(2-(2,6-Dioxopiperidin-3-yl)-1,3-dioxoisoindolin-5-yl)piperidin-4-yl)amino)methyl)phenyl)amino)-5-(trifluoromethyl}pyridin-4-yl)amino)-N-methylbenzamide], for which the DC50 worked out at 3.5 nM and the maximal degradation (Dmax) stood at 93%.
